Tests used:
Assay type in all cases: physicochemical
[1] = Laser diffraction analysis of the aerosol cloud from the test inhaler (cyclone); conditions: 60 l/min, 20 mg per inhalation, lactose fraction 63-106 μm, mean of 6 inhalations
Method: Inhalation experiments with the mixture were performed at 60 l/min with a test inhaler (see FIG. 1), having the same disintegration principle (cyclone) as the Colistin dry powder inhaler (prototype). […]
(§1) The aerosol cloud from the inhaler was characterized with a laser diffraction technique (Sympatec HELOS Compact, model KA with 100 mm lens) using the Fraunhofer theory. A special inhaler adapter was used in order to adjust the required flow rate through the inhaler device. The adapter consisted of a cylindrical chamber with side tubes connecting the adapter at both sides to the housing of the laser diffraction apparatus. The inhaler device was connected to the front of the adapter, whereas the vacuum system was connected to the rear end of the adapter. Thus, a closed system was created through which the flow rate can be controlled very carefully and in which the aerosol cloud passes the laser beam for the measurement. Standard HELOS software was used: start and stop of the measurement was triggered on channel 32 with 0.1% difference in optical signal (compared with the signal during reference measurement). The mass fraction of the dose delivered by the inhaler was not analyzed during these experiments (no particle collector in line with the adapter).
II The physical mixture with 83.3% Colistin was also tested with the test inhaler at 20, 30, 40 and 50 l/min. […]

[2] = Dry laser diffraction analysis of Colistin powder (RODOS dispersion)
Method: A lactose size fraction of 106-150 μm, derived from 100 M lactose (DMV International, Veghel, The Netherlands) was used as excipient. The fraction was prepared by subsequent vibratory sieving (20 minutes in a Fritsch Analysette 3, Idar-Oberstein, Germany) and air jet sieving (10 minutes in an Alpine A200, Augsburg, Germany) of small quantities (approx. 50 g) of the starting material. Micronized Colistin was prepared by fluid energy milling (GfM, Hamburg, Germany), but because the size distribution of the active ingredient was not satisfactory, size reduction of the crystalline material was continued for 26.5 hours in a ball mill (50 g in a container of 750 ml, filled with ceramic balls of different sizes to a filling degree of 67%). The container was placed on a home constructed drive. Size distributions before and after milling in the ball mill were measured with laser diffraction technique (Fraunhofer theory, using Sympatec HELOS Compact, model KA with 100 mm lens) using dry dispersion with a RODOS disperser at 4 bar.

[3] = Laser diffraction analysis of the aerosol cloud from the Pharmachemie Cyclohaler (ISF inhaler); conditions: 60 l/min, 10 mg per capsule, six inhalations
Source text: as §1
Pure micronized Colistin was also inhaled with a commercial DPI (Pharmachemie Cyclohaler equals ISF Inhaler equals Novartis Foradil Inhaler, see FIG. 3), using the same (laser diffraction) procedures. Six hard gelatin capsules (no. 3) were filled with 10 mg per capsule and the capsules were sealed before use. Inhalation time was 3 seconds. […]

[4] = primary Colistin particles, RODOS dispersion

Substance: Colistin
- X-50 (μm) From cum. undersize curve [1]: 2.3 μm
- X-90 (μm) From cum. Undersize curve [1]: 7.5 μm
- mean diameter (X50-value) ([2]; after size reduction in the ball mill (26.5 hours), RODOS dispersion, n=3): 2.14 μm
- X100-value ([2]; after size reduction in the ball mill, RODOS dispersion): 87.0 μm
- mean diameter (X50-value) ([2]; before size reduction in the ball mill, RODOS disperser at 4 bar): 6.43 μm
- X100-value ([2]; before size reduction in the ball mill, RODOS dispersion): 51.0 μm
- X-50 (μm) From cum. undersize curve [2, 4]: 2.1 μm
- X-90 (μm) From cum. Undersize curve [2, 4]: 31.0 μm
- average median diameter for the aerosol cloud [3]: 18.23 micron

Reference: patent US7344734B2, “Powder formulation” (Rijksuniversiteit Groningen, priority 2000, dated 2008)
